Laboratory results as given in ChEMBL document CHEMBL5230129, “Antibacterial activities with the structure-activity relationship of coumarin derivatives” (2020).
≈ marks a conversion by molar mass, not a printed value.

Legend:
Format in all cases: functional
Staphylococcus aureus [1] = experiment: Antibacterial activity against Staphylococcus aureus assessed as inhibition of bacterial growth by broth dilution assay
Bacillus subtilis [2] = experiment: Antibacterial activity against Bacillus subtilis assessed as inhibition of bacterial growth by broth dilution assay
Pseudomonas = experiment: Antibacterial activity against Pseudomonas assessed as zone of inhibition
Escherichia coli [3] = experiment: Antibacterial activity against Escherichia coli assessed as inhibition of bacterial growth relative to control
Bacillus subtilis [4] = experiment: Antibacterial activity against Bacillus subtilis assessed as inhibition of bacterial growth relative to control
Staphylococcus aureus [5] = experiment: Antibacterial activity against Staphylococcus aureus assessed as inhibition of bacterial growth by broth micro dilution assay
Bacillus = experiment: Antibacterial activity against Bacillus assessed as inhibition of bacterial growth by broth micro dilution assay
Escherichia coli [6] = experiment: Antibacterial activity against Escherichia coli assessed as inhibition of bacterial growth by broth micro dilution assay
Staphylococcus aureus [7] = experiment: Antibacterial activity against Staphylococcus aureus MTCC 96 assessed as inhibition of bacterial growth incubated for 18 to 20 hrs by broth microdilution assay; settings: time 18-20 hrs
Escherichia coli [8] = experiment: Antibacterial activity against Escherichia coli MTCC 443 assessed as inhibition of bacterial growth incubated for 18 to 20 hrs by broth microdilution assay; settings: time 18-20 hrs
Enterococcus faecalis = experiment: Antibacterial activity against Enterococcus faecalis PCM 2673 assessed as inhibition of bacterial growth incubated for 24 hrs by microbroth dilution assay
Escherichia coli [9] = experiment: Antibacterial activity against Escherichia coli ATCC 8739 assessed as inhibition of bacterial growth incubated for 24 hrs by microbroth dilution assay
Escherichia coli [10] = experiment: Antibacterial activity against Escherichia coli assessed as zone of inhibition incubated for 3 days by cup plate agar diffusion assay; settings: time 3 day
Pseudomonas aeruginosa [11] = experiment: Antibacterial activity against Pseudomonas aeruginosa assessed as zone of inhibition incubated for 3 days by cup plate agar diffusion assay; settings: time 3 day
Bacillus subtilis [12] = experiment: Antibacterial activity against Bacillus subtilis assessed as zone of inhibition incubated for 3 days by cup plate agar diffusion assay; settings: time 3 day
Staphylococcus aureus [13] = experiment: Antibacterial activity against Staphylococcus aureus assessed as zone of inhibition incubated for 3 days by cup plate agar diffusion assay; settings: time 3 day
Escherichia coli [14] = experiment: Antibacterial activity against Escherichia coli 1411 assessed as inhibition of bacterial growth incubated for 24 hrs by two-fold serial dilution method
Escherichia coli [15] = experiment: Antibacterial activity against Escherichia coli SM1411 assessed as inhibition of bacterial growth incubated for 24 hrs by two-fold serial dilution method
Pseudomonas fluorescens = experiment: Antibacterial activity against Pseudomonas fluorescens NCIM 2173 assessed as inhibition of bacterial growth incubated for 24 hrs by serial twofold dilution assay
[16] = system: Sphingomonas paucimobilis; experiment: Antibacterial activity against Flavobacterium devorans ATCC 10829 assessed as inhibition of bacterial growth incubated for 24 hrs by serial twofold dilution assay
Escherichia coli [17] = experiment: Antibacterial activity against Escherichia coli NCIM 2256 assessed as inhibition of bacterial growth incubated for 24 hrs by serial twofold dilution assay
Escherichia coli [18] = experiment: Antibacterial activity against Escherichia coli ATCC 25922 assessed as zone of inhibition incubated for 24 hrs by paper disk method
Pseudomonas aeruginosa [19] = experiment: Antibacterial activity against Pseudomonas aeruginosa ATCC 27853 assessed as zone of inhibition incubated for 24 hrs by paper disk method

O=c1oc2ccc(Br)cc2cc1-c1cc2ccc3ccccc3c2o1
MIC (Staphylococcus aureus [1]): 0.2 µg/mL (≈ 0.511 µM)
MIC (Bacillus subtilis [2]): 0.8 µg/mL (≈ 2.04 µM)

O=c1cc(-c2nc3ccccc3[nH]2)c2ccc3ccccc3c2o1
inhibition zone (IZ) (Pseudomonas): 4.2 mm

COC(=O)c1nnn(CC(=O)c2cc3cc(Br)ccc3oc2=O)c1C(=O)OC
inhibition (INH) (Escherichia coli [3]): 88.8%
inhibition (INH) (Bacillus subtilis [4]): 82.2%

Cc1ccc2c(C3NNC(=O)N3)cc(=O)oc2c1 (centres undefined)
MIC (Staphylococcus aureus [5]): 1.6 µg/mL (≈ 6.52 µM)
MIC (Bacillus): 1.6 µg/mL (≈ 6.52 µM)
MIC (Escherichia coli [6]): 1.6 µg/mL (≈ 6.52 µM)

Cc1cc(=O)oc2cc(OC(=O)CNC3N=C(c4ccc(F)cc4)C=C(c4ccc(O)cc4)S3)c([N+](=O)[O-])cc12 (centres undefined)
MIC (Staphylococcus aureus [7]): 250 µg/mL (≈ 445 µM)
MIC (Escherichia coli [8]): 250 µg/mL (≈ 445 µM)

O=c1cc(OCc2cn(-c3ccc(F)cc3)nn2)c2ccccc2o1
MIC (Enterococcus faecalis): 400 µg/mL (≈ 1190 µM)
MIC (Escherichia coli [9]): 1600 µg/mL (≈ 4740 µM)

COc1cc(/C=C/C(=O)c2c(OCc3cnnn3Cc3ccccc3)ccc3c(C)cc(=O)oc23)cc(OC)c1OC
inhibition zone (IZ) (Escherichia coli [10]): 33 mm
inhibition zone (IZ) (Pseudomonas aeruginosa [11]): 14 mm
inhibition zone (IZ) (Bacillus subtilis [12]): 15 mm
inhibition zone (IZ) (Staphylococcus aureus [13]): 35 mm

Cc1cc(=O)oc2cc(OC(=O)CNC3N=C(c4ccc(F)cc4)C=C(c4cccc(Br)c4)S3)c([N+](=O)[O-])cc12 (centres undefined)
MIC (Staphylococcus aureus [7]): 100 µg/mL (≈ 160 µM)
MIC (Escherichia coli [8]): 500 µg/mL (≈ 801 µM)

Cc1ccc2oc(-c3cc4ccccc4oc3=O)cc2c1
MIC (Staphylococcus aureus [1]): 0.2 µg/mL (≈ 0.724 µM)
MIC (Bacillus subtilis [2]): 0.4 µg/mL (≈ 1.45 µM)

COc1ccc2c(C3NNC(=O)N3)cc(=O)oc2c1 (centres undefined)
MIC (Staphylococcus aureus [5]): 0.8 µg/mL (≈ 3.06 µM)
MIC (Bacillus): 3.12 µg/mL (≈ 11.9 µM)
MIC (Escherichia coli [6]): 1.6 µg/mL (≈ 6.12 µM)

COc1cc(C2CC(c3cc4ccccc4oc3=O)=NN2)ccc1O (centres undefined)
MIC (Escherichia coli [14]): 14 µg/mL (≈ 41.6 µM)
MIC (Escherichia coli [15]): 14 µg/mL (≈ 41.6 µM)

O=c1oc2ccccc2cc1C1=NNC(c2ccc(-c3ccccc3)c(-c3ccccc3)c2)C1 (centres undefined)
MIC (Escherichia coli [14]): > 70 µg/mL
MIC (Escherichia coli [15]): > 70 µg/mL

Cc1cc(=O)oc2cc(OC(=O)CNC3N=C(c4ccc(F)cc4)C=C(c4cccc(Oc5ccccc5)c4)S3)c([N+](=O)[O-])cc12 (centres undefined)
MIC (Staphylococcus aureus [7]): 200 µg/mL (≈ 314 µM)
MIC (Escherichia coli [8]): 250 µg/mL (≈ 392 µM)

O=c1cc(OCc2cn(-c3ccccc3)nn2)c2ccccc2o1
MIC (Enterococcus faecalis): 50 µg/mL (≈ 157 µM)
MIC (Escherichia coli [9]): 1600 µg/mL (≈ 5010 µM)

Cc1cc(OCc2cn(Cc3ccc(Cl)cc3)nn2)cc2oc(=O)ccc12
MIC (Pseudomonas fluorescens): 2 µg/mL (≈ 5.24 µM)
MIC [16]: 2 µg/mL (≈ 5.24 µM)
MIC (Escherichia coli [17]): 2 µg/mL (≈ 5.24 µM)

Cc1ccc2c(C3NNC(=O)N3)cc(=O)oc2c1C (centres undefined)
MIC (Staphylococcus aureus [5]): 12.6 µg/mL (≈ 48.6 µM)
MIC (Bacillus): 3.12 µg/mL (≈ 12 µM)
MIC (Escherichia coli [6]): 25 µg/mL (≈ 96.4 µM)

COc1ccccc1-n1cc(COc2cc(=O)oc3ccccc23)nn1
MIC (Enterococcus faecalis): 12.5 µg/mL (≈ 35.8 µM)
MIC (Escherichia coli [9]): 1600 µg/mL (≈ 4580 µM)

O=c1oc2ccccc2cc1C1=NNC(c2ccc(Br)cc2)C1 (centres undefined)
MIC (Escherichia coli [14]): > 70 µg/mL
MIC (Escherichia coli [15]): > 70 µg/mL

Cc1ccc2cc(-c3cc4ccccc4oc3=O)oc2c1
MIC (Staphylococcus aureus [1]): 0.2 µg/mL (≈ 0.724 µM)
MIC (Bacillus subtilis [2]): 0.2 µg/mL (≈ 0.724 µM)

O=C(COc1cc(=O)oc2ccccc12)NC1CCCCCC1
inhibition zone (IZ) (Escherichia coli [18]): 11 mm
inhibition zone (IZ) (Pseudomonas aeruginosa [19]): 10 mm

Cc1cc(C)c2c(C3NNC(=O)N3)cc(=O)oc2c1 (centres undefined)
MIC (Staphylococcus aureus [5]): 6.25 µg/mL (≈ 24.1 µM)
MIC (Bacillus): 6.25 µg/mL (≈ 24.1 µM)
MIC (Escherichia coli [6]): 50 µg/mL (≈ 193 µM)

Cc1cc(=O)oc2c(C(=O)/C=C/c3ccccc3)c(OCc3cnnn3Cc3ccccc3)ccc12
inhibition zone (IZ) (Escherichia coli [10]): 10 mm
inhibition zone (IZ) (Pseudomonas aeruginosa [11]): 4 mm
inhibition zone (IZ) (Bacillus subtilis [12]): 8 mm
inhibition zone (IZ) (Staphylococcus aureus [13]): 11 mm

Cc1cc(=O)oc2cc(OC(=O)CNC3N=C(c4ccc(F)cc4)C=C(c4ccc(F)cc4)S3)c([N+](=O)[O-])cc12 (centres undefined)
MIC (Staphylococcus aureus [7]): 125 µg/mL (≈ 222 µM)
MIC (Escherichia coli [8]): 200 µg/mL (≈ 355 µM)

N[C@@H]1CONC1=O [CYCLOSERINE]
MIC (Escherichia coli [14]): 16 µg/mL (≈ 157 µM)
MIC (Escherichia coli [15]): 16 µg/mL (≈ 157 µM)

Cc1cc(OCc2cn(Cc3ccc([N+](=O)[O-])cc3)nn2)cc2oc(=O)ccc12
MIC (Pseudomonas fluorescens): 2 µg/mL (≈ 5.1 µM)
MIC [16]: 16 µg/mL (≈ 40.8 µM)
MIC (Escherichia coli [17]): 2 µg/mL (≈ 5.1 µM)
